# Data reported in US20090075921A1, “Bone/joint disease sensitivity gene and use thereof” (Riken, priority 2004, published 2009).
# Columns and labels:
# [1] = test system: NHAC; experiment: Effect of cycloheximide on asporin gene expression induction by TGF-β1 in NHAC; assay type: cell-based, human
# Protocol: A time course of the expression of the asporin gene by TGF-β1 in NHAC was examined as described below. Cells were inoculated to a 12-well plate at 1×10^5 cells/well, and cultured in a DMEM/F12 containing 10% FBS until they became confluent. The medium was exchanged with a DMEM/F12 containing 0.2% FBS, and the cells were cultured for 24 hours, after which TGF-β1 (10 ng/ml) was added, total RNA was extracted over time, and the expression levels of the asporin and GAPDH genes were examined. As a result, the expression level of the asporin gene maximized when the cells were cultured in the presence of TGF-β1 (10 ng/ml) for 12 hours, and thereafter the expression level decreased over time (FIG. 46).
# In the experimental system for asporin gene-expression induction by TGF-β1 used in the method described in Example 54, the effect of CHX (Sigma) (10 μM), a protein synthesis inhibitor, on the induction of the expression of the asporin gene (12 hours), when added 30 minutes before, simultaneously with, or 2 hours or 6 hours after addition of TGF-β1 (10 ng/ml), was examined. As a result, when CHX was added 30 minutes before, and simultaneously with, the addition of TGF-β1, asporin induction by TGF-β1 was inhibited (FIG. 48).
# [2] = test system: RCJ3.1C5.18 cells; experiment: Ionomycin stimulation experiments in chondrocyte precursor cell line RCJ3.1C5.18; assay type: cell-based, rat; settings: ionomycin 2 μM, W-7 0 to 10 μM, 24 hours
# Protocol: RCJ3.1C5.18 cells are cells having characters as chondrocyte precursor cells, and showing increased expression of the type II collagen gene and the aggrecan gene in response to stimulation with ionomycin, which is a reagent that raises intracellular calcium concentrations. The present inventors analyzed the involvement of CaM in this reaction using W-7, which is a CaM inhibitor. For ordinary culture, DMEM (Sigma) comprising 10% FBS and antibiotics (100 U/ml penicillin G and 100 μg/ml streptomycin) was used. The stimulation experiments were performed by the procedure shown below. Cells were inoculated to a 12-multiwell plate at 1×10^5 cells/well. […] Quantitative real-time PCR was performed using ABI PRISM 7700 (Applied Biosystems). PCR reactions were performed using a system of a final volume of 20 μl [reverse transcription reaction mixture 1 μl, QuantiTect SYBR Green PCR (QIAGEN) 10 μl, 10 μM forward primer 0.6 μl, 10 μM reverse primer 0.6 μl, […]]. […] The copy number of the target gene in each sample was calculated from a calibration curve prepared using serial dilutions of target gene DNA of a known copy number. The expression level of each gene was corrected by total RNA content calculated with the expression level of GADPH as the index.
# [3] = test system: ATDC5; experiment: Chondrocyte differentiation experiments in ATDC5 with CaM inhibitor; assay type: cell-based, mouse; settings: W-7 20 μM in insulin-containing differentiation medium
# Text: The embryonic tumor-derived cloned cell line ATDC5 is an in vitro chondrocyte differentiation model that enables the reproduction of all differentiation stages of chondrocytes, from initial differentiation to terminal differentiation, in the presence of insulin. To analyze the role of calmodulin (CaM) in chondrocyte differentiation, the present inventors cultured ATDC5 in the presence of W-7, which is a CaM inhibitor, and quantified the expression levels of chondrocyte differentiation markers, i.e., the type II collagen gene (Col2a1), the aggrecan gene (Agc1), and the type X collagen gene (Col10a1). […] Medium exchange was performed every two days; cultivation was continued for up to 22 days, counted from the day of exchange to the differentiation medium. […] Quantitative real-time PCR was performed using ABI PRISM 7700 (Applied Biosystems). PCR reactions were performed using a system of a final volume of 20 μl [reverse transcription reaction mixture 1 μl, QuantiTect SYBR Green PCR (QIAGEN) 10 μl, 10 μM forward primer 0.6 μl, 10 μM reverse primer 0.6 μl, […]]. […] The copy number of the target gene in each sample was calculated from a calibration curve prepared using serial dilutions of target gene DNA of a known copy number. The expression level of each gene was corrected by total RNA content calculated with the expression level of Gapdh as the index.
# [4] = biological target: TGF-β1 (Homo sapiens, UniProt P01137); experiment: Microplate binding assay, inhibition of biotinylated decholine binding to TGF-β1 solid phase; settings: TGF-β1-coated microplate
# Protocol: A binding assay of mouse asporin and TGF-β using the microplate assay method was performed with the degree of inhibition of binding of biotinylated decholine and TGF-β as the index, as described below. To a Maxisorp 96-well microplate of Nunc, a 1 μg/ml TGF-β1 solution prepared with 0.05 M sodium carbonate buffer (pH 9.6) was dispensed at 100 μl/well, and the microplate was coated with the solution at 4° C. overnight. The TGF-β-coated wells were blocked in a 200 μl/well of binding buffer (50 mM Tris (pH 7.4), 150 mM NaCl, 2% BSA, 0.05% Tween 20) at 37° C. for 3 hours. The wells were once washed with a 400 μl/well of binding buffer, after which biotinylated decholine and non-labeled protein, prepared with the binding buffer, were added to obtain a total quantity of 100 μl per well, and the microplate was incubated at 37° C. for 6 hours. The wells were washed with a 400 μl/well of binding buffer 3 times, after which streptavidin-HRP (R&D System), diluted 200 fold with the binding buffer, was added at 100 μl/well, and the microplate was incubated at room temperature for 20 minutes. […] The reaction was stopped by the direct addition of 1 M phosphoric acid at 100 μl/well, and absorbance at 415 nm (control: 750 nm) was measured using Ultramark Microplate Imaging System (BIO-RAD). […]
# Chain of TGF-β1 (P01137 279-390 limits assumed, species assumed): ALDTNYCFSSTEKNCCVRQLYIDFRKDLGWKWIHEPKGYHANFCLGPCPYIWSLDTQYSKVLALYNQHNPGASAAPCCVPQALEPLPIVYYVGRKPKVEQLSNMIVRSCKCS
molecule,measurement,setting,value
"C[C@@H]1C[C@@H]([C@H](O)CC2CC(=O)NC(=O)C2)C(=O)[C@@H](C)C1 [CHX, cycloheximide]",asporin induction by TGF-β1,[1]; CHX 10 μM added 30 minutes before or simultaneously with TGF-β1 10 ng/ml,inhibited
same,asporin induction by TGF-β1,[1]; CHX 10 μM added at 2 hours or thereafter following TGF-β1,induction of asporin gene expression by TGF-β1 was observed
NCCCCCCNS(=O)(=O)c1cccc2c(Cl)cccc12 [W-7],ionomycin-induced expression of the type II collagen gene and the aggrecan gene,[2],suppressed dose-dependently
same,increases in the expression levels of Col2a1 and Agc1,[3]; real-time PCR,suppressed to about half
same,expression level of Col10a1,[3]; up to Day 22,further rose
"Fr.18-21: partially purified product of Escherichia coli recombinant S-tagged mouse asporin (protein, UniProt Q99MQ4 33-373, looked up, S-tag; partially purified fraction, partially purified product of Escherichia coli recombinant S-tagged mouse asporin) Asporin: DMEDTDDDDNDDDDNSLFPTKEPVNPFFPFDLFPTCPFGCQCYSRVVHCSDLGLTSVPNNIPFDTRMVDLQNNKIKEIKENDFKGLTSLYALILNNNKLTKIHPKTFLTTKKLRRLYLSHNQLSEIPLNLPKSLAELRIHDNKVKKIQKDTFKGMNALHVLEMSANPLENNGIEPGAFEGVTVFHIRIAEAKLTSIPKGLPPTLLELHLDFNKISTVELEDLKRYRELQRLGLGNNRITDIENGTFANIPRVREIHLEHNKLKKIPSGLQELKYLQIIFLHYNSIAKVGVNDFCPTVPKMKKSLYSAISLFNNPMKYWEIQPATFRCVLGRMSVQLGNVGK",inhibition of binding of biotinylated decholine to TGF-β1,[4],observed with dependence on protein content
"S-tagged mouse asporin: S-tagged mature mouse asporin expressed in E. coli from pET29b-MASP, contained in Fr.18-21 (protein, left off: small tags and cut ends) DMEDTDDDDNDDDDNSLFPTKEPVNPFFPFDLFPTCPFGCQCYSRVVHCSDLGLTSVPNNIPFDTRMVDLQNNKIKEIKENDFKGLTSLYALILNNNKLTKIHPKTFLTTKKLRRLYLSHNQLSEIPLNLPKSLAELRIHDNKVKKIQKDTFKGMNALHVLEMSANPLENNGIEPGAFEGVTVFHIRIAEAKLTSIPKGLPPTLLELHLDFNKISTVELEDLKRYRELQRLGLGNNRITDIENGTFANIPRVREIHLEHNKLKKIPSGLQELKYLQIIFLHYNSIAKVGVNDFCPTVPKMKKSLYSAISLFNNPMKYWEIQPATFRCVLGRMSVQLGNVGK",binding of S-tagged mouse asporin to the TGF-β1 solid phase,[4],binding of S-tagged mouse asporin was observed
